In experiment [1] the test system is reporter gene with premature stop codon (TGA) in COS-7 cells. Description: In vitro read-through activity, COS-7 cells transfected with β-galactosidase/luciferase reporter gene. It is filed as cell-based, African green monkey. To be noted: for Read-through Activity: same method as Example 16, luciferase activity divided by β-galactosidase activity, 48 hours incubation, concentration for these values not given; for read-through activity / read-through efficiency (FIG. 1-3, in words): COS-7, TGA reporter, compared with negamycin. Here is the method: African green monkey SV40-transformed kidney fibroblast cell line (COS-7) was sown in 100×20 mm cell culture dishes manufactured by Falcon and cultured at 37° C. in 5% CO2. Fifty milliliters of fetal bovine serum (FBS) was added to 500 mL of D-MEM (containing high glucose, L-glutamine, and phenol red) manufactured by Wako Pure Chemical Industries Ltd., and culture broth prepared to adjust to 10% FBS was used as the culture broth. (Referred to hereinafter as culture broth.)
The Reporter Lysis Buffer 5×, assay 2× buffer, 1 M Na2CO3, and standard used in creation of the calibration curve referred to hereinafter are included in the β-Galactosidase Enzyme Assay System with Reporter Lysis Buffer manufactured by Promega.
COS-7 cells (8.0×10^3 cells/well) were seeded by continuous dispensing of 100 μL each into flat-bottom 96-well plates (Costar (registered trade mark) 3596) manufactured by Corning and incubated for 15-16 hours at 37° C.
A quantity of 4 μL/well of DNA solution prepared in a ratio of 1.32 μL (2 μg) of reporter gene (a construct obtained by linking a β-galactosidase gene and a luciferase gene and inserting a premature stop codon (TGA) at their juncture), 100 μL of OPTI-MEM (registered trade mark) I (Reduced Serum Medium 1×) manufactured by Invitrogen, and 4 μL of FuGENE (registered trade mark) HD Transfection Reagent manufactured by Roche was added to the solution and incubated for 10-11 hours at 37° C.
The entire culture broth was aspirated, and the compound to be evaluated was prepared to adjust to 200 μM by culture broth and added by continuously dispensing 200 μL/well. 100 μM and 50 μM were also prepared in the same way and added by continuously dispensing 200 μL each. Incubation was carried out for 48 hours at 37° C. after addition.
After 48 hours had elapsed, the entire culture broth in the well was aspirated and washed twice with PBS. The Reporter Lysis Buffer 5× was then diluted by MilliQ, and a solution prepared to adjust to Reporter Lysis Buffer l× was added by continuously dispensing 100 μL each and allowed to stand for 15 minutes at room temperature. The contents of each well were recovered thereafter, and the entire amount was transferred to Nunc microwell plates (V bottom) manufactured by Thermo Fisher Scientific and centrifuged (1800 rpm, 15 minutes). Eighty-five microliters of this lysate was transferred to Nunc low-binding 96-well plates (flat bottom) clear manufactured by Thermo Fisher Scientific.
Using Nunc low-binding 96-well plates (flat bottom) clear manufactured by Thermo Fisher Scientific, 30 μL/well of Reporter Lysis Buffer l× was added by dispensing continuously, followed by addition of 20 μL of the recovered lysate to make 50 μL. Separately, the standard required for creation of a calibration curve was added to make 0, 1, 2, 3, 4, and 5 mU according to the protocol of the β-Galactosidase Enzyme Assay System with Reporter Lysis Buffer manufactured by Promega. A quantity of 50 μL of Assay 2× buffer was added to each of these wells and incubated for 25 minutes at room temperature. A quantity of 150 μL/well of 1M Na2CO3, a reaction-stopping solution, was added, and the […] (420 nm, reference […]) was measured immediately using an absorption/fluorescence microplate reader Tecan Safire manufactured by Tecan. A calibration curve was created from the absorbance of the standard, and the absorbance converted to mU according to this calibration curve was taken as the activity value.
A quantity of 50 μL/well of the recovered lysate was added to 96-well white plates (Costar (registered trade mark) 3912) manufactured by Corning and incubated for five minutes at room temperature after adding 100 μL of PicaGene (registered trade mark) manufactured by Toyo Ink Co., Ltd. After five minutes, the emission intensity was measured by a Berthold luminometer MicroLumat Plus LB96V manufactured by Berthold Japan. […]

The conditions of experiment [2]: prior knowledge; cited from earlier work.
Experiment [3] has as its system premature stop codon. Description: Read-through activity stated in the description, test not specified. To be noted: statement of the inventors' finding, no test named.
Experiment [4] relates to transgenic mice with luciferase gene and β-galactosidase gene as reporter genes. Description: In vivo read-through activity in reporter transgenic mice (rectus femoris and gastrosoleus muscle). To be noted: subcutaneous, every 24 hours for seven consecutive days; muscle excised on the eighth day. Here is the method: Transgenic mice were produced by introducing a luciferase gene and […] gene as reporter genes by the method described in International Publication WO2008/004610 pamphlet.
A physiological saline solution of example compound 2 synthesized in Example 1 was administered subcutaneously to the abdomen of the transgenic mice produced every 24 hours for seven consecutive days. On the eighth day, the rectus femoris and the gastrosoleus muscle of the mice were excised. After mincing by ophthalmological scissors, three times the wet weight of Reporter Lysis Buffer (Promega, US) was added, and the tissue was disrupted by Physcotron (Niti-on Co., Ltd.). After freezing overnight and thawing, the supernatant obtained by centrifugation was introduced into a 96-well plate, and the β-galactosidase activity was measured by a Beta-Glo Assay System (Promega, US) and the luciferase activity was measured by a Bright-Glo Assay System (Promega, US). A luminometer (ATTO) was used in measurement. The luciferase activity value was divided by the […] activity value, and the value multiplied by 10^4 was taken as the read-through efficiency.

“Also recorded” adds a separate entry of the source.

With `CC(C)[C@H](N)C(=O)N[C@@H](CCN)CC(=O)NN(C)CC(=O)O` [compound 35], the “Read-through Activity” value in experiment [1] stood at 3.09 ± 0.62.
Turning to `CC(C)[C@H](N)C(=O)N[C@@H](CCCN)CC(=O)NN(C)CC(=O)O` [compound 16], the “Read-through Activity” value in experiment [1] amounted to 1.87 ± 0.29.
As to `CN(CC(=O)O)NC(=O)C[C@H](CCCN)NC(=O)[C@@H](N)Cc1ccccc1` [compound 14], the “Read-through Activity” value in experiment [1] is on record as 2.13 ± 0.08.
`CN(CC(=O)O)NC(=O)C[C@@H](N)CCNCc1ccccc1` [compound 28]: in experiment [1], the “Read-through Activity” value is reported as 1.40 ± 0.04.
As to `CC(C)C[C@@H](N)C(=O)N[C@@H](CCCN)CC(=O)NN(C)CC(=O)O` [compound 23], in experiment [1], the “Read-through Activity” value is 5.65 ± 0.09.
In the case of `CN(CC(=O)OCc1ccccc1Br)NC(=O)C[C@@H](N)CCN` [compound 25], the “Read-through Activity” value in experiment [1] was found to be 1.26 ± 0.07.
Consider `CN(CC(=O)O)NC(=O)C[C@H](N)C[C@@H](O)CN` [negamycin, methylhydrazinoacetic acid-linked δ-hydroxy-β-lysine, reference compound], for which, in experiment [1], the “Read-through Activity” value is recorded as 1.53±0.04. Moreover, in experiment [2], the “antimicrobial activity (in words)” value is on record as “high antimicrobial activity”.
On to `CN(CC(=O)O)NC(=O)C[C@H](CCCN)NC(=O)CN` [compound 17], for which the “Read-through Activity” value in experiment [1] came out at 2.10 ± 0.90.
As to `CN(CC(=O)O)NC(=O)C[C@H](CCN)NC(=O)[C@@H](N)Cc1ccc(O)cc1` [compound 39], the “Read-through Activity” value in experiment [1] was found to be 1.63 ± 0.14.
As for `CN(CC(=O)O)NC(=O)C[C@H](CCCN)NC(=O)[C@@H](N)Cc1ccccc1` [compound 19], in experiment [1], the “Read-through Activity” value amounted to 3.25 ± 0.07.
With `CN(CC(=O)O)NC(=O)C[C@@H](N)CCN` [Example Compound 3, (S)-2-(2-(3,5-diaminopentanoyl)-1-methylhydrazinyl)acetic acid], the “read-through activity / read-through efficiency (FIG. 1-3, in words)” value in experiment [1] is “remarkably high read-through efficiency in comparison even to negamycin; also recorded: read-through efficiency equal to or greater than that of negamycin”.
`C[C@H](N)C(=O)N[C@@H](CCN)CC(=O)NN(C)CC(=O)O` [compound 36]: in experiment [1], the “Read-through Activity” value is on record as 1.92 ± 0.40.
On to `C[C@H](N)C(=O)N[C@@H](CCN)CC(=O)NN(C)CC(=O)O` [compound 41], for which the “Read-through Activity” value in experiment [1] was 1.57 ± 0.05.
On the same count and under the same terms, next, `CN(CC(=O)O)NC(=O)C[C@@H](N)CCNS(C)(=O)=O` [compound 32]: 1.24 ± 0.09; `CN(CC(=O)O)NC(=O)C[C@@H](N)CCNC(=O)CN` [compound 29]: 2.84 ± 0.06; `CN(CC(=O)O)NC(=O)C[C@H](CCN)NC(=O)[C@@H](N)CCCN` [compound 46]: 1.60 ± 0.13.
As for `CN(CC(=O)O)NC(=O)C[C@@H](N)CCNC(=O)CN` [compound 34], the “Read-through Activity” value in experiment [1] is recorded as 2.00 ± 0.13.
Consider `CN(CC(=O)OCc1ccccc1Br)NC(=O)C[C@@H](N)CCN` [compound 20], for which the “Read-through Activity” value in experiment [1] came to 7.07 ± 0.45.
In the case of `CC(C)C[C@H](N)C(=O)N[C@@H](CC(=O)CN)CC(=O)NN(C)CC(=O)O` [3-N-leucyl-3-epi-5-dehydronegamycin], the “read-through activity (in words)” value in experiment [3] is listed as “potent read-through activity”. In experiment [2], the “antimicrobial activity (in words)” value was “no antimicrobial activity”.
With `CN(CC(=O)O)NC(=O)C[C@H](CCN)NC(=O)[C@@H](N)CCN` [compound 45], the “Read-through Activity” value in experiment [1] is given as 1.65 ± 0.18.
Consider `CC[C@H](C)[C@H](N)C(=O)N[C@@H](CCN)CC(=O)NN(C)CC(=O)O` [compound 38], for which the “Read-through Activity” value in experiment [1] worked out at 1.75 ± 0.19.
On to `CN(CC(=O)O)NC(=O)C[C@H](CCN)NC(=O)[C@@H](N)CCCCN` [compound 42], for which the “Read-through Activity” value in experiment [1] is 2.14 ± 0.18.
Take `CN(CC(=O)O)NC(=O)C[C@H](CCN)NC(=O)[C@@H](N)CCN` [compound 40]: in experiment [1], the “Read-through Activity” value was 1.50 ± 0.05.
Consider `CCOC(=O)N(CC(=O)O)NC(=O)C[C@@H](N)CCCN` [compound 15], for which the “Read-through Activity” value in experiment [1] is on record as 1.92 ± 0.21.
Regarding `CC(C)C[C@@H](N)C(=O)N[C@@H](CCCN)CC(=O)NN(C)CC(=O)O` [compound 18], the “Read-through Activity” value in experiment [1] is listed as 1.30 ± 0.09.
On to `CN(CC(=O)OCc1ccccc1)NC(=O)C[C@@H](N)CCN` [compound 24], for which the “Read-through Activity” value in experiment [1] is recorded as 3.89 ± 0.16.
As for `CC(C)C[C@H](N)C(=O)N[C@@H](CCCN)CC(=O)NN(C)CC(=O)O` [Example Compound 7, 2-(2-((S)-6-amino-3-((S)-2-amino-4-methylpentanamide)hexanoyl)-1-methylhydrazinyl)acetic acid], the “read-through activity / read-through efficiency (FIG. 1-3, in words)” value in experiment [1] was “remarkably high read-through efficiency in comparison even to negamycin”.
`CN(CC(=O)O)NC(=O)C[C@@H](N)CCCN` [Example Compound 2, (S)-2-(2-(3,6-diaminohexanoyl)-1-methylhydrazinyl)acetic acid]: in experiment [1], the “read-through activity / read-through efficiency (FIG. 1-3, in words)” value is given as “remarkably high read-through efficiency in comparison even to negamycin”. The “read-through activity in vivo (FIG. 4, in words)” value in experiment [4] was “high read-through activity even in comparison to gentamicin and 5-epi-negamycin”.
Consider `CN(CC(=O)OCc1ccc(Br)cc1)NC(=O)C[C@@H](N)CCN` [compound 22], for which the “Read-through Activity” value in experiment [1] is on record as 5.18 ± 0.04.
Still for that read-out and setting: then `CN(CC(=O)O)NC(=O)C[C@H](CCN)NC(=O)CN` [compound 37], with 2.78 ± 0.67.
Take `CN(CC(=O)O)NC(=O)C[C@@H](N)CCNCc1ccccc1` [compound 33]: the “Read-through Activity” value in experiment [1] came to 2.34 ± 0.11.
On to `CC[C@H](C)[C@H](N)C(=O)N[C@@H](CCN)CC(=O)NN(C)CC(=O)O` [compound 43], for which the “Read-through Activity” value in experiment [1] was found to be 2.20 ± 0.05.
As for `CCCCCNCC[C@H](N)CC(=O)NN(C)CC(=O)O` [compound 27], in experiment [1], the “Read-through Activity” value is given as 1.64 ± 0.12.
As to `CN(CC(=O)O)NC(=O)CC(N)CCCN` (stereo not drawn) [3-Epi-5-dehydroxynegamycin], the “antimicrobial activity (in words)” value in experiment [2] is given as “weak antimicrobial activity”.
Take `CCCNCC[C@H](N)CC(=O)NN(C)CC(=O)O` [compound 26]: in experiment [1], the “Read-through Activity” value is 1.44 ± 0.04.
Regarding `CN(CC(=O)O)NC(=O)C[C@H](CCN)NC(=O)[C@@H](N)CC(=O)O` [compound 44], the “Read-through Activity” value in experiment [1] is 1.58 ± 0.05.
As to `CN(CC(=O)O)NC(=O)CC(N)CC(O)CN` (stereo not drawn) [5-epi-negamycin], the “read-through activity (in words)” value in experiment [3] is “has read-through activity”.
In the case of `CCOC(=O)CN(C)NC(=O)C[C@@H](N)CCCN` [Example Compound 5, (S)-ethyl 2-(2-(3,6-diaminohexanoyl)-1-methylhydrazinyl)acetate], in experiment [1], the “read-through activity / read-through efficiency (FIG. 1-3, in words)” value is on record as “remarkably high read-through efficiency in comparison even to negamycin”.

(Values after patent US9371274B2, “Compound having read-through activity” (The University of Tokyo, priority 2011, dated 2016).)
